{"source": "ChEMBL document CHEMBL4619816", "about": "“GSK973 Is an Inhibitor of the Second Bromodomains (BD2s) of the Bromodomain and Extra-Terminal (BET) Family” (ACS Med Chem Lett, 2020)", "key": {"[1]": {"test": "Clearance in Beagle dog hepatocytes assessed as per gram tissue at 0.5 uM by LC-MS/MS analysis", "assay_type": "ADME, cell-based, Canis lupus familiaris, Hepatocyte"}, "[2]": {"target": "Bromodomain-containing protein 2 (Homo sapiens) (UniProt P25440)", "sequence (P25440 whole entry, looked up, the tested form may be a part, canonical isoform)": "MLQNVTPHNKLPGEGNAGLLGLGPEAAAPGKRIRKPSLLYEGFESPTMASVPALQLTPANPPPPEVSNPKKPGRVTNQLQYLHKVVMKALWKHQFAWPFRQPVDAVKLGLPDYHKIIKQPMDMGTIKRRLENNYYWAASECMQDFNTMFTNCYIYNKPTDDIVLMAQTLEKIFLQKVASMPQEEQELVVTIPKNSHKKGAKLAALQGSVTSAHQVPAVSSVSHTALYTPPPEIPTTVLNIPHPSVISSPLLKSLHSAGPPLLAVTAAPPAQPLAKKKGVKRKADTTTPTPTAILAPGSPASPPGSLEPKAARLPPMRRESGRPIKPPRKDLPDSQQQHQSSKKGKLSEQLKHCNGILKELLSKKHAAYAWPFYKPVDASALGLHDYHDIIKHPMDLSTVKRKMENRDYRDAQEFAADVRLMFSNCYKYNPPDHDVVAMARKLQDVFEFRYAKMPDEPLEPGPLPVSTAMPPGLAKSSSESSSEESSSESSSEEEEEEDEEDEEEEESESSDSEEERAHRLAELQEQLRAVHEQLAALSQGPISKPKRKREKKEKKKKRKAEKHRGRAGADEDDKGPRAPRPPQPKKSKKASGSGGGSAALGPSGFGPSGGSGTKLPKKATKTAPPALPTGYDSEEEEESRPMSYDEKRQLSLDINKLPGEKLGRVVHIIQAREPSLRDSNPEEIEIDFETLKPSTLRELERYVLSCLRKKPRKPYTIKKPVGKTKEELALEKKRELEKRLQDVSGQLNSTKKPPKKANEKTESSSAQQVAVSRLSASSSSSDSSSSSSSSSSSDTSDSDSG", "test": "Inhibition of human partial length BRD2 bromodomain 1/2 isoform 1 (K71 to D455 residues) by BROMOscan assay"}, "[3]": {"test": "Chromatographic hydrophobicity index, log D of the compound in pH 7.4 ammonium acetate buffer/acetonitrile gradient by HPLC analysis", "assay_type": "physicochemical"}, "[4]": {"target": "Bromodomain-containing protein 2 (Homo sapiens) (UniProt P25440)", "test": "Inhibition of human partial length BRD2 bromodomain 1 long isoform (K71 to N194 residues) expressed in bacterial expression system by BROMOscan assay"}, "Peregrin (Homo sapiens)": {"target": "Peregrin (Homo sapiens) (UniProt P55201)", "test": "Inhibition of human partial length BRPF1 (E627 to G740 residues) expressed in bacterial expression system by BROMOscan assay"}, "[5]": {"target": "Histone acetyltransferase p300 (Homo sapiens) (UniProt Q09472)", "test": "Inhibition of human partial length EP300 (A1040 to G1161 residues) expressed in bacterial expression system by BROMOscan assay"}, "Blood": {"tested_on": "Blood", "test": "Inhibition of LPS-induced MCP1 production in human whole blood preincubated for 30 mins followed by LPS addition measured after 24 hrs by immuno assay", "assay_type": "functional, tissue-based"}, "[6]": {"test": "Volume of distribution at steady state in Beagle dog at 1 mg/kg, iv", "assay_type": "ADME, organism-based, Canis lupus familiaris", "details": "in vivo, read-out: Vdss"}, "[7]": {"target": "SWI/SNF-related matrix-associated actin-dependent regulator of chromatin subfamily A member 2 (Homo sapiens) (UniProt P51531)", "test": "Inhibition of human partial length SMARCA2 (S1377 to Q1486 residues) expressed in bacterial expression system by BROMOscan assay"}, "[8]": {"target": "Histone acetyltransferase KAT2A (Homo sapiens) (UniProt Q92830)", "test": "Inhibition of human partial length GCN5L2 (E726 to K837 residues) expressed in bacterial expression system by BROMOscan assay"}, "[9]": {"test": "Clearance in Wistar Han rat at 1 mg/kg administered as iv infusion for 1 hr and measured up to 24 hrs by LC-MS/MS analysis", "assay_type": "ADME, organism-based", "details": "in vivo"}, "[10]": {"target": "Bromodomain-containing protein 3 (Homo sapiens) (UniProt Q15059)", "sequence (Q15059 2-726 limits assumed)": "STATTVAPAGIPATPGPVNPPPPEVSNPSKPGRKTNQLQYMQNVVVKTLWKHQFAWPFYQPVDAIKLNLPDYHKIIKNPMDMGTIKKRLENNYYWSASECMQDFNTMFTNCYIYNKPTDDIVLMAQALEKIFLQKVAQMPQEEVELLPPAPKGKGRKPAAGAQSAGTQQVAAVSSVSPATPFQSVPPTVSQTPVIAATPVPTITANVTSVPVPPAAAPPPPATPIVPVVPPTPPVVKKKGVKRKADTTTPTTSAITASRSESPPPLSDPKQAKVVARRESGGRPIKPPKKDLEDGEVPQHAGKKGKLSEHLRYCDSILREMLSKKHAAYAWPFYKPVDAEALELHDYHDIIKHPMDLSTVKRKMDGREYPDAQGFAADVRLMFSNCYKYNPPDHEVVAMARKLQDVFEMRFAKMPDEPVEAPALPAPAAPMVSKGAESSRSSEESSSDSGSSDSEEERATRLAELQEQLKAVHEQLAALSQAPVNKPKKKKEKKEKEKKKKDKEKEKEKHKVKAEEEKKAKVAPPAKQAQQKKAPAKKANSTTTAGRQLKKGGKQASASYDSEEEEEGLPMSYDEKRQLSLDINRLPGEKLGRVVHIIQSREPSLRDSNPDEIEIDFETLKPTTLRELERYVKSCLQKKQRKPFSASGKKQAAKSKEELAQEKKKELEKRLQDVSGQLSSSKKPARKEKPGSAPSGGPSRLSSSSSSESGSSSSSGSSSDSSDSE", "test": "Inhibition of human partial length BRD3 bromodomain 1 (P24 to E144 residues) expressed in bacterial expression system by BROMOscan assay"}, "[11]": {"test": "Half life in Beagle dog at 1 mg/kg, iv", "assay_type": "ADME, organism-based, Canis lupus familiaris", "details": "in vivo"}, "[12]": {"target": "Bromodomain-containing protein 2 (Homo sapiens) (UniProt P25440)", "test": "Inhibition of human partial length BRD2 bromodomain 2 isoform 1 (E348 to D455 residues) expressed in bacterial expression system by BROMOscan assay"}, "[13]": {"target": "Chromatin remodeling regulator CECR2 (Homo sapiens) (UniProt Q9BXF3)", "test": "Inhibition of human partial length CECR2 (P423 to D543 residues) expressed in bacterial expression system by BROMOscan assay"}, "[14]": {"test": "Renal clearance in Beagle dog at 1 mg/kg, iv", "assay_type": "ADME, organism-based, Canis lupus familiaris", "details": "in vivo"}, "[15]": {"target": "Bromodomain testis-specific protein (Homo sapiens) (UniProt Q58F21)", "test": "Inhibition of human partial length BRDT bromodomain 2 (K250 to E382 residues) expressed in bacterial expression system by BROMOscan assay"}, "[16]": {"target": "Bromodomain-containing protein 3 (Homo sapiens) (UniProt Q15059)", "test": "Inhibition of BRD3 bromodomain 1/2 (unknown origin) by BROMOscan assay"}, "[17]": {"target": "ATPase family AAA domain-containing protein 2B (Homo sapiens) (UniProt Q9ULI0)", "test": "Inhibition of human partial length ATAD2B (Q955 to R1082 residues) expressed in bacterial expression system by BROMOscan assay"}, "[18]": {"test": "Clearance in Wistar Han rat hepatocytes assessed as per gram tissue at 0.5 uM measured up to 1 hr by LC-MS/MS analysis", "assay_type": "ADME, cell-based, Hepatocyte"}, "[19]": {"test": "Volume of distribution at steady state in Wistar Han rat at 1 mg/kg administered as iv infusion for 1 hr and measured up to 24 hrs by LC-MS/MS analysis", "assay_type": "ADME, organism-based", "details": "in vivo, read-out: Vdss"}, "[20]": {"target": "Bromodomain testis-specific protein (Homo sapiens) (UniProt Q58F21)", "test": "Inhibition of BRDT bromodomain 1/2 (unknown origin) by BROMOscan assay"}, "[21]": {"target": "Bromodomain adjacent to zinc finger domain protein 2B (Homo sapiens) (UniProt Q9UIF8)", "test": "Inhibition of human partial length BAZ2B (S2054 to S2168 residues) expressed in bacterial expression system by BROMOscan assay"}, "[22]": {"target": "Bromodomain testis-specific protein (Homo sapiens) (UniProt Q58F21)", "test": "Inhibition of human partial length BRDT bromodomain 1 (N21 to E137 residues) expressed in bacterial expression system by BROMOscan assay"}, "[23]": {"target": "E3 ubiquitin-protein ligase TRIM33 (Homo sapiens) (UniProt Q9UPN9)", "test": "Inhibition of human partial length TRIM33 (D882 to A1087 residues) expressed in bacterial expression system by BROMOscan assay"}, "[24]": {"target": "Bromodomain-containing protein 1 (Homo sapiens) (UniProt O95696)", "test": "Inhibition of human partial length BRD1 (E556 to A688 residues) expressed in bacterial expression system by BROMOscan assay"}, "[25]": {"target": "Bromodomain and WD repeat-containing protein 1 (Homo sapiens) (UniProt Q9NSI6)", "sequence (Q9NSI6 whole entry, the tested form may be a part)": "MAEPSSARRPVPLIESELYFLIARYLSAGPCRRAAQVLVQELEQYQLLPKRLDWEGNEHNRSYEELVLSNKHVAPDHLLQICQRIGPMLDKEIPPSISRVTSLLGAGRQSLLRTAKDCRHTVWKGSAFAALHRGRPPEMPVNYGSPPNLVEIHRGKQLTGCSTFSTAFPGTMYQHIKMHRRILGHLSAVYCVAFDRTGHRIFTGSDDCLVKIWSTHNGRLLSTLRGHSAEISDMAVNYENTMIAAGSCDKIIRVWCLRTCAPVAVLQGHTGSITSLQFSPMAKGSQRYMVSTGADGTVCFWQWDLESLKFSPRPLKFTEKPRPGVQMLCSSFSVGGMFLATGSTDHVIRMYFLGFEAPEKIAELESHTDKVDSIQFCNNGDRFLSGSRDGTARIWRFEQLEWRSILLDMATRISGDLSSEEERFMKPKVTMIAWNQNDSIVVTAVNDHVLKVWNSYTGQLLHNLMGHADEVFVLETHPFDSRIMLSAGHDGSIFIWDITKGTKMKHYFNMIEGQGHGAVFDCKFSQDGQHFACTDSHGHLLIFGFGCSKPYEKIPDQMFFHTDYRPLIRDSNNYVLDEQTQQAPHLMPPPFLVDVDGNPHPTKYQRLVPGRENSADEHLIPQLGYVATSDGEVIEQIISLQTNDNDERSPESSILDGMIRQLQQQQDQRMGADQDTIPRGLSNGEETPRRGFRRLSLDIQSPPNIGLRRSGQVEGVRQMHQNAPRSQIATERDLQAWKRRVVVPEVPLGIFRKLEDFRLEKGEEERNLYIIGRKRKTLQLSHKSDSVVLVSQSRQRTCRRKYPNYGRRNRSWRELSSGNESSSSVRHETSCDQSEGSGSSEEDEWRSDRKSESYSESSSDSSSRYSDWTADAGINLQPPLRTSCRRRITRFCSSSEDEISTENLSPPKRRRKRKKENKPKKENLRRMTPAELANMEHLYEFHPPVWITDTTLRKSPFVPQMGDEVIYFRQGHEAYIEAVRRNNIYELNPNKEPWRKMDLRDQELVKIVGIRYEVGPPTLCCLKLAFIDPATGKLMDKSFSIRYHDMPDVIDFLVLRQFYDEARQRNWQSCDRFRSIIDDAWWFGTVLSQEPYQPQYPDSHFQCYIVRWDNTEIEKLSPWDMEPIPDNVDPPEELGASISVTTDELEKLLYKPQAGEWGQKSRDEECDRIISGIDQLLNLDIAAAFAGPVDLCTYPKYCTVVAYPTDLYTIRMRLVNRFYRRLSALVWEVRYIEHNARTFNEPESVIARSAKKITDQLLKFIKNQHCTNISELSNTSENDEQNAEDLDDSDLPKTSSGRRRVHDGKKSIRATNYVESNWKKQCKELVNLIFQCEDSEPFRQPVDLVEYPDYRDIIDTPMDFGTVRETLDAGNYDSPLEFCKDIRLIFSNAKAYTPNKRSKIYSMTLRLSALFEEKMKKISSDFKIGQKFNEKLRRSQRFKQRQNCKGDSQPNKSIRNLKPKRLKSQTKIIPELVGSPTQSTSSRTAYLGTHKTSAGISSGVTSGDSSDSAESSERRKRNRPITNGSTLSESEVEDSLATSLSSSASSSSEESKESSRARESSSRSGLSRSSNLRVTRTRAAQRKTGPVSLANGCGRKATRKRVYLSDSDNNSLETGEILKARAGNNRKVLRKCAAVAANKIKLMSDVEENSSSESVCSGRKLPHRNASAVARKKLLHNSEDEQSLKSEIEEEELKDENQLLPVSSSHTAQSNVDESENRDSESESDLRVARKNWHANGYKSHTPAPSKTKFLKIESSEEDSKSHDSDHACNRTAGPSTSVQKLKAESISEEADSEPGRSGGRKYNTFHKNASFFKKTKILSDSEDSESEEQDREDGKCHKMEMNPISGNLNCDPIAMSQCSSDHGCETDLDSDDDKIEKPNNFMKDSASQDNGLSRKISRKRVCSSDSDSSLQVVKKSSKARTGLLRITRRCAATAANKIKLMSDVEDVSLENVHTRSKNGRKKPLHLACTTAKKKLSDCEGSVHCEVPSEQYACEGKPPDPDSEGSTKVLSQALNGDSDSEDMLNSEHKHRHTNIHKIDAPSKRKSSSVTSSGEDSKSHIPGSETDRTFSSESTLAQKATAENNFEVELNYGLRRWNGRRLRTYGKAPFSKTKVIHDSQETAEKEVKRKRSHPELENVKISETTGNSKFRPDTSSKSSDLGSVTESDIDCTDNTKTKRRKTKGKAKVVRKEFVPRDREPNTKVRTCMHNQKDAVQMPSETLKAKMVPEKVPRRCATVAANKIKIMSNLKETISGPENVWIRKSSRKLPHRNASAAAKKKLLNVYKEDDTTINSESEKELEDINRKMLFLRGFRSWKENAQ", "test": "Inhibition of human partial length WDR9 bromodomain 2 (A1310 to E1430 residues) expressed in bacterial expression system by BROMOscan assay"}, "[26]": {"target": "Bromodomain-containing protein 8 (Homo sapiens) (UniProt Q9H0E9)", "sequence (Q9H0E9 whole entry)": "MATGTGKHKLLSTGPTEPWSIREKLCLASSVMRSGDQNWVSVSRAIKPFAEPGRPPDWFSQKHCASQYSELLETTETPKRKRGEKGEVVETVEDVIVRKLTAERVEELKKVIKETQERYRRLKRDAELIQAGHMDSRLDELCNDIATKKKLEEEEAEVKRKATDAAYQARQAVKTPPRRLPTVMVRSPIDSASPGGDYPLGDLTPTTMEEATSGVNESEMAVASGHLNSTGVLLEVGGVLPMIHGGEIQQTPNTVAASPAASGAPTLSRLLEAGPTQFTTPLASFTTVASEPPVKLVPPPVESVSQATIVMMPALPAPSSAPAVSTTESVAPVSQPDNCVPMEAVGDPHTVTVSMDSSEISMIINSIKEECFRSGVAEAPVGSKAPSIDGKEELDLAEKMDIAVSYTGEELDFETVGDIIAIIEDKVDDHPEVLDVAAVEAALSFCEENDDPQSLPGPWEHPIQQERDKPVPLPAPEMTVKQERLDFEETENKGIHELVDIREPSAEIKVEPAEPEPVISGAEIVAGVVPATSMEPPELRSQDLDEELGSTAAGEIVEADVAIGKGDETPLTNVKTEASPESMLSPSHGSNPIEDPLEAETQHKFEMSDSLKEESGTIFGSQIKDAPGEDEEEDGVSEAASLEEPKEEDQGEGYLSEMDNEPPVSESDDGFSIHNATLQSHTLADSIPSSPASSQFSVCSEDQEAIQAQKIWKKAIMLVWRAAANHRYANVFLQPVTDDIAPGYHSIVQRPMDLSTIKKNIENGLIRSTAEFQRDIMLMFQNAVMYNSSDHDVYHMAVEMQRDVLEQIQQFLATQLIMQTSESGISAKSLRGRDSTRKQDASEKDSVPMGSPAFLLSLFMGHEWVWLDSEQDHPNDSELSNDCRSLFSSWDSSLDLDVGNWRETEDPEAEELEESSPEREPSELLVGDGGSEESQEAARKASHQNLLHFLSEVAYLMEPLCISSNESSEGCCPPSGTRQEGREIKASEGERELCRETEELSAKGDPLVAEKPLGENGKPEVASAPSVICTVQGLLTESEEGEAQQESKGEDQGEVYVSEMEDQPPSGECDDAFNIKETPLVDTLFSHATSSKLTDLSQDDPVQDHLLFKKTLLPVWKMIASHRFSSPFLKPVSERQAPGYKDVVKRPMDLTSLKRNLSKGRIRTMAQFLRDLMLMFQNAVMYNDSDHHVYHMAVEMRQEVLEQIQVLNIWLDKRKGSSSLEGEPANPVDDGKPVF", "test": "Inhibition of BRD8 bromodomain 1 (unknown origin) by BROMOscan assay"}, "[27]": {"target": "Bromodomain adjacent to zinc finger domain protein 2A (Homo sapiens) (UniProt Q9UIF9)", "test": "Inhibition of human partial length BAZ2A (M1792 to L1905 residues) expressed in bacterial expression system by BROMOscan assay"}, "[28]": {"test": "Oral bioavailability in Beagle dog at 1 mg/kg, […]", "assay_type": "ADME, organism-based, Canis lupus familiaris", "details": "in vivo"}, "[29]": {"target": "Histone acetyltransferase KAT2B (Homo sapiens) (UniProt Q92831)", "test": "Inhibition of human partial length PCAF (G715 to D831 residues) expressed in bacterial expression system by BROMOscan assay"}, "[30]": {"target": "Bromodomain and PHD finger-containing protein 3 (Homo sapiens) (UniProt Q9ULD4)", "test": "Inhibition of human partial length BRPF3 (E588 to G701 residues) expressed in bacterial expression system by BROMOscan assay"}, "[31]": {"target": "Transcription initiation factor TFIID subunit 1-like (Homo sapiens) (UniProt Q8IZX4)", "test": "Inhibition of human partial length TAF1L bromodomain 2 (Q1523 to D1654 residues) expressed in bacterial expression system by BROMOscan assay"}, "[32]": {"target": "Bromodomain-containing protein 3 (Homo sapiens) (UniProt Q15059)", "test": "Inhibition of human partial length BRD3 bromodomain 2 (G306 to P416 residues) expressed in bacterial expression system by BROMOscan assay"}, "[33]": {"target": "Bromodomain-containing protein 8 (Homo sapiens) (UniProt Q9H0E9)", "test": "Inhibition of BRD8 bromodomain 2 (unknown origin) by BROMOscan assay"}, "[34]": {"test": "Clearance in Beagle dog at 1 mg/kg, iv", "assay_type": "ADME, organism-based, Canis lupus familiaris", "details": "in vivo"}, "[35]": {"target": "Bromodomain-containing protein 9 (Homo sapiens) (UniProt Q9H8M2)", "test": "Inhibition of human partial length BRD9 (R130 to V259 residues) expressed in bacterial expression system by BROMOscan assay"}}, "note": "Calls of active or inactive are those of the source. The rule behind the calls is not given here.", "data": [{"smiles": "CNC(=O)c1cc(C(=O)N[C@@H]2[C@@H]3COC[C@@H]32)cc2c1O[C@H](CF)[C@H]2c1ccccc1", "values": [{"measurement": "CLH", "setting": "[1]", "result": "< 0.65", "unit": "mL/min/g"}, {"measurement": "inhibition", "setting": "[2]", "result": "inactive"}, {"measurement": "CHI", "setting": "[3]", "result": 3.56}, {"measurement": "inhibition", "setting": "[4]", "result": "inactive"}, {"measurement": "inhibition", "setting": "Peregrin (Homo sapiens)", "result": "inactive"}, {"measurement": "inhibition", "setting": "[5]", "result": "inactive"}, {"measurement": "IC50", "setting": "Blood", "result": 50.1, "unit": "nM"}, {"measurement": "Vd", "setting": "[6]", "result": 1.3, "unit": "L/kg"}, {"measurement": "inhibition", "setting": "[7]", "result": "inactive"}, {"measurement": "inhibition", "setting": "[8]", "result": "inactive"}, {"measurement": "clearance", "setting": "[9]", "result": 73, "unit": "mL/min/kg"}, {"measurement": "inhibition", "setting": "[10]", "result": "inactive"}, {"measurement": "half-life", "setting": "[11]", "result": 4.8, "unit": "h"}, {"measurement": "inhibition", "setting": "[12]", "result": "inactive"}, {"measurement": "inhibition", "setting": "[13]", "result": "inactive"}, {"measurement": "CL renal", "setting": "[14]", "result": 0.3, "unit": "mL/min/kg"}, {"measurement": "inhibition", "setting": "[15]", "result": "inactive"}, {"measurement": "inhibition", "setting": "[16]", "result": "inactive"}, {"measurement": "inhibition", "setting": "[17]", "result": "inactive"}, {"measurement": "CLH", "setting": "[18]", "result": 1.76, "unit": "mL/min/g"}, {"measurement": "Vd", "setting": "[19]", "result": 2.1, "unit": "L/kg"}, {"measurement": "inhibition", "setting": "[20]", "result": "inactive"}, {"measurement": "inhibition", "setting": "[21]", "result": "inactive"}, {"measurement": "inhibition", "setting": "[22]", "result": "inactive"}, {"measurement": "inhibition", "setting": "[23]", "result": "inactive"}, {"measurement": "inhibition", "setting": "[24]", "result": "inactive"}, {"measurement": "inhibition", "setting": "[25]", "result": "inactive"}, {"measurement": "inhibition", "setting": "[26]", "result": "inactive"}, {"measurement": "inhibition", "setting": "[27]", "result": "inactive"}, {"measurement": "bioavailability", "setting": "[28]", "result": 87, "unit": "%"}, {"measurement": "inhibition", "setting": "[29]", "result": "inactive"}, {"measurement": "inhibition", "setting": "[30]", "result": "inactive"}, {"measurement": "inhibition", "setting": "[31]", "result": "inactive"}, {"measurement": "inhibition", "setting": "[32]", "result": "inactive"}, {"measurement": "inhibition", "setting": "[33]", "result": "inactive"}, {"measurement": "clearance", "setting": "[34]", "result": 3, "unit": "mL/min/kg"}, {"measurement": "inhibition", "setting": "[35]", "result": "inactive"}]}]}
